Molecular target: ΔmtDXPS (Mycobacterium tuberculosis, UniProt P9WNS3, D231G/I229G/K230G/L233G/S232G/S234G)
Format: binding

O=C(CCCOc1ccc(Cl)cc1Cl)NCCc1ccc(O)cc1F [Compound 39]
fold decrease in binding affinity for ΔmtDXPS: ~1.5 fold

Source: PMC8188608 (Chemical Science, 2021)
